Assay [1] concerns platelet aggregation induced by TXA2 agonist U-46619. As to the kind of experiment: Platelet Aggregation-inhibition Action 1 (U-46619-induced, platelet-rich plasma). To be noted: U-46619 1-4 μM final, PRP, compound added one minute before U-46619. It counts as cell-based. The method, then:
Platelet Aggregation-inhibition Action 1
(§1) Blood collected from medial cubital vein is centrifuged at 800 rmp for 10 minutes and the upper portion of the resultant is collected as platelet-rich plasma (PRP). The PRP is dividedly poured into small test tubes and a TXA2 agonist U-46619 is added thereto (final concentration: 1-4 μM) so as to induce platelet aggregation. The degree of platelet aggregation is measured in terms of change in turbidity by a platelet aggregation measuring apparatus (Hematoracer, NIKO BIOSCIENCE). The compound is added one minute before the addition of U-46619 and the concentration of the compound at which the aggregation is inhibited by 50% is calculated as IC50 value.

Assay [2] has as its system platelet aggregation induced by ADP. As to the kind of experiment: Platelet Aggregation-Inhibition Action 2 (ADP-induced, platelet-rich plasma). To be noted: ADP 1-3 μM final, PRP, compound added one minute before ADP. It counts as cell-based. The method, then:
Platelet Aggregation-Inhibition Action 2
as §1, with “PRP).” for “(PRP).”, “ADP” for “a TXA2 agonist U-46619”, “1-3” for “1-4”, “Hematoracer,” for “(Hematoracer,”, “ADP” for “U-46619 and”

In assay [3] the target is T1, TXA2 receptor (Homo sapiens, UniProt P21731).
T1 construct: the finally obtained precipitate was collected as the platelet membrane fraction; endogenous in cells; host or cells: membrane fraction of human platelets
T1 sequence (P21731 1-343): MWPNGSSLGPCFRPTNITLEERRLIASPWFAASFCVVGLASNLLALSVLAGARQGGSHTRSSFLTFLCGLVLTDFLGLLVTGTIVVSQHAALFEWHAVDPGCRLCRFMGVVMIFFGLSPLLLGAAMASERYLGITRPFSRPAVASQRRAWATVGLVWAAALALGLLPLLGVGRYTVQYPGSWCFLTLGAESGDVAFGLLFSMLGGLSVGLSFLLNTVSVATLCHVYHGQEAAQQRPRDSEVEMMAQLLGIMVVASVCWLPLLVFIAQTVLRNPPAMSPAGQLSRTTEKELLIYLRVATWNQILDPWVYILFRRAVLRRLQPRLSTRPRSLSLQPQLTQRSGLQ
As to the kind of experiment: TXA2 Receptor Binding Test 2 ([3H]SQ29548, human platelet membrane fraction). The note with it: 25° C., 30 minutes, pH 7.4, Ki=IC50/[1+(radioactive ligand concentration/Kd)]. The method, then:
TXA2 Receptor Binding Test 2
Blood collected from human forearm vein and ACD solution (85 mM trisodium citrate, 65 mM citric acid, 2% glucose) in an amount of 1/10 volume of the blood were mixed the resultant was dividedly poured into Spitz tubes an amount of 8 ml/tube. The mixture was centrifuged at 200×g for 10 minutes at room temperature to obtain platelet-rich plasma and the obtained platelet-rich plasma was centrifuged at 1000×g for 15 minutes to obtain platelets. The platelets were washed by centrifugation using a washing buffer (115 mM sodium chloride, 4.3 mM potassium dihydrogen phosphate, 5.5 mM glucose, 1 mM disodium EDTA, 10 μM indomethacin, pH 6.5) and 1 ml of a melting buffer (10 mM Tris(hydroxymethyl)aminomethane, 5 mM magnesium chloride, 2 mM disodium EDTA, pH 7.4) was added. The resultant was frozen in liquid nitrogen and thawed at room temperature. By repeating freezing in liquid nitrogen and thawing totally three times, the platelets were ruptured. The resultant was washed three times by ultracentrifugation (40,000×g, each 20 minutes) using iced 5 mM Tris-HCl buffer, and the finally obtained precipitate was collected as the platelet membrane fraction.
As the ligand of TXA2, tritium-labelled SQ29548 ([^3 H]SQ29548) was used. As the solvent for the receptor binding reaction, 50 mM Tris-HCl buffer (5 mM magnesium chloride, pH 7.4) was used. […] The filter was washed with a iced buffer and radioactivity was measured by scintillation counter. The non-specific binding to substances other than the platelets was measured by the reaction in the presence of SQ29548 having a final concentration of […]. The IC50 value of the test compound and Hill coefficient in the binding test was determined by Pseudo-Hill plot. The receptor dissociation constant (Ki value) was calculated according to the following equation from the IC50 value and the receptor dissociation constant (Kd value) of [^3 H]SQ29548 determined in the saturation test. […]

The next assay deals with T2, PGI2 receptor (Homo sapiens, UniProt P43119).
T2 construct: platelet membrane fraction having a concentration of 0.1 mg protein/ml; endogenous in cells
As to the kind of experiment: PGI2 Receptor Binding Test ([3H]APS-314d, platelet membrane fraction). The note with it: platelet membrane fraction 0.1 mg protein/ml, 4° C., 60 minutes, Ki=IC50/[1+(radioactive ligand concentration/Kd)]. The method, then:
PGI2 Receptor Binding Test
As the ligand of PGI2 receptor, tritium-labelled (1R,2R,3aS,8bS)-2,3,3a,8-tetrahydro-2-hydroxy-1-[(E)-(3S,4S)-3-hydroxy-4-methyl-1-octene-6-ynyl]-1H-cyclopenta[b]benzofuran-5-butanoic acid ([^3 H]APS-314d) was used. The saturation test was carried out by reacting [^3 H]APS-314d (100 μl) having a final concentration of 3-100 nM with a suspension (100 μl) of platelet membrane fraction having a concentration of 0.1 mg protein/ml at 4° C. for 60 minutes under shaking. The competition test was carried out by mixing a mixture (100 μl) of a test compound dissolved in an appropriate solvent and then diluted and [^3 H]APS-314d, and the suspension of platelet membrane fraction (100 μl) having a concentration of 0.1 mg protein/ml, and allowing the mixture to react at 4° C. for 60 minutes under shaking. After the reaction, the resultant was filtered through a glass filter using a cell harvester to collect the membrane fraction on the glass filter. The filter was washed with a iced buffer and radioactivity was measured by scintillation counter. The non-specific binding to substances other than the platelets was measured by the reaction in the presence of sodium beraprost having a final concentration of 10 nM. The IC50 value of the test compound and Hill coefficient in the binding test was determined by Pseudo-Hill plot. The receptor dissociation constant (Ki value) was calculated according to the following equation from the IC50 value and the receptor dissociation constant (Kd value) of [^3 H]APS-314d determined in the saturation test.
Ki=IC50 /[1+(radioactive ligand concentration/Kd)]

Assay [4] addresses T3, TXA2 receptor (Oryctolagus cuniculus, UniProt Q6WQI8).
T3 sequence (Q6WQI8 1-233): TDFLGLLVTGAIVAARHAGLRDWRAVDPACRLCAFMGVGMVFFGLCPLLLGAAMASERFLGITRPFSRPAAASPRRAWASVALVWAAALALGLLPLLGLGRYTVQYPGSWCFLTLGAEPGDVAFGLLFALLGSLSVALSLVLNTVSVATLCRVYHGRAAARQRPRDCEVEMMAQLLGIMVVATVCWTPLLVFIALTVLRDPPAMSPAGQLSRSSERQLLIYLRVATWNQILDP
The experiment in a line: TXA2 Receptor Binding Test 1 ([3H]SQ29548, washed rabbit platelets). To be noted: [3H]SQ29548 3 nM, rabbit washed platelets 10 mg/ml, 25° C., 60 minutes. Details: species or system New Zealand White rabbit. The method, then:
TXA2 Receptor Binding Test 1
Blood from a New Zealand White rabbit is taken in a vessel containing ACD solution (prepared by dissolving 1.175 g of sodium citrate, 0.685 g of citric acid and 1 g of dextrose in 50 ml of distilled water) and centrifuged at 180×g for 10 minutes at room temperature to obtain platelet-rich plasma. The obtained platelet-rich plasma is centrifuged at […] at room temperature to precipitate platelets. The platelets are then suspended in 50 mM Tris-HCl buffer (pH 7.2, containing 0.154M of NaCl) and the suspension is centrifuged at 2800×g for 15 minutes at 4° C. These operations are repeated twice to prepare washed platelets and the concentration of the platelets are adjusted to a final concentration of 10 mg/ml (wet weight).
As the ligand of TXA2, tritium-labelled SQ29548 ([^3 H]SQ29548) is used. In the antagonism test, 20 μl of [^3 H]SQ29548 having a final concentration of 3 nM is added to 500 μl of a platelet suspension having a platelet concentration of 10 mg/ml and 2.6 μl of a solution of a test compound dissolved in an appropriate solvent is added thereto. After incubating the resulting mixture at 25° C. for 60 minutes, the mixture is filtered through a glass filter by the cell harvester method. After washing the filter with 50 mM Tris-HCl buffer (3×4 ml), the radioactivity of the filter is measured by a scintillation counter, thereby measuring the amount of the [^3 H]SQ29548 bound to platelets. In the saturation test, 20 μl of [^3 H]SQ29548 is added to a final concentration of 0.1-50 nM and 2.6 μl of BM13505 having a final concentration of 1 μM is added so as to check non-specific binding, followed by carrying out the binding test. The concentration of the test compound at which binding of [^3 H]SQ29548 is inhibited by 50% is determined as the IC50 value.
The results of the evaluation of the activities of the compounds of the present invention by this method are summarized d in Table 3.

T2 sequence (P43119 whole entry): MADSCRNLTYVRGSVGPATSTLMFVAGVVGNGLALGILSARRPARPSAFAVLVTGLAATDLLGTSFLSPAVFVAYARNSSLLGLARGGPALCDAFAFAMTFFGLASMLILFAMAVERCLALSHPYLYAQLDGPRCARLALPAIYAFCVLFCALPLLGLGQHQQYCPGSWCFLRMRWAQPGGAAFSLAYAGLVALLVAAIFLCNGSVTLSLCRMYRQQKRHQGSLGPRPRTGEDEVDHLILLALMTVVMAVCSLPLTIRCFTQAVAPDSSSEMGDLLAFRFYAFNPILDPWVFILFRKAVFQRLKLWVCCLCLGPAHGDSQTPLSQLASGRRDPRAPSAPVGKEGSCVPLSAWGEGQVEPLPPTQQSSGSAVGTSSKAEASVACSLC

By IC50 is commonly meant the concentration needed to halve the response being measured. Higher therefore signals a need for much substance. As a reminder, the Ki is a measure of affinity in units of concentration, obtained from inhibition or displacement. As for `O=C(O)COc1cccc2c1ccn2CCCC(c1ccccc1)c1ccccc1` [Example 118, (1-(4,4-diphenylbutyl)indole-4-yloxy)acetic acid], the figures for the concentration for half-maximal inhibition (IC50) in assay [1] and in assay [2] were 1.7 µM and 3.6 µM, respectively. The Ki on TXA2 receptor [3] was determined as 3.6 µM; at PGI2 receptor, 0.44 µM.

As for `O=C(O)COc1cccc2c(COCCC(c3ccccc3)c3ccccc3)coc12` [Example 48, (3-((3,3-diphenylpropyloxy)methyl)benzofuran-7-yloxy)acetic acid], the IC50 stood at 4.8 µM in assay [1] and 7.8 µM in assay [2]. The results for the Ki on TXA2 receptor [3] and on PGI2 receptor were 7.7 µM and 0.38 µM, respectively.

As for `Cc1oc2c(OCC(=O)O)cccc2c1CNS(=O)(=O)CCc1ccccc1` [Example 16, (3-(((2-phenylethyl)sulfonylamino)methyl)-2-methylbenzofuran-7-yloxy)aceticacid], the IC50 in assay [1] is 0.5 µM; in assay [2] it was 403 µM; on TXA2 receptor [4], 0.0545 µM.

As for `Cc1oc2c(OCC(=O)O)cccc2c1CCSCCc1ccccc1` [Example 31, (3-(2-(2-phenylethylthio)ethyl)-2-methylbenzofuran-7-yloxy)acetic acid], the 50% inhibitory concentration (IC50) in assay [1] is 0.44 µM; in assay [2] it was 265 µM; at TXA2 receptor [4], 0.0513 µM.

Take `O=C(O)COc1cccc2c(CCSC(c3ccccc3)c3ccccc3)coc12` [Example 68]: the 50% inhibitory concentration (IC50) in assay [1] stood at 0.9 µM; in assay [2] it was 6.2 µM. Moreover, the Ki at PGI2 receptor was 0.41 µM.

As to `Cc1oc2c(OCC(=O)O)cccc2c1CNS(=O)(=O)Cc1ccccc1` [Example 15, Methyl (3-((benzylsulfonylamino)methyl)-2-methylbenzofuran-7-yloxy)acetic acid], the 50% inhibitory concentration (IC50) is 1 µM in assay [1], 201 µM in assay [2] and 1.1 µM at TXA2 receptor [4].

Regarding `COC(=O)COc1cccc2c(CCSC(c3ccccc3)c3ccccc3)coc12` [Example 67, Methyl (3-(2-(diphenylmethylthio)ethyl)benzofuran-7-yloxy)acetate], at TXA2 receptor [3], the Ki was found to be 0.31 µM.

On to `Cc1oc2c(OCC(=O)O)cccc2c1CCS(=O)(=O)CCc1ccccc1` [Example 33, (3-(2-(2-phenylethylsulfonyl)ethyl)-2-methylbenzofuran-7-yloxy)acetic acid], for which the half-inhibitory concentration (IC50) in assay [1] is 1.1 µM; at TXA2 receptor [4] it was 0.0919 µM.

As for `Cc1oc2c(OCC(=O)O)cccc2c1CC[S+]([O-])CCc1ccccc1` (stereo not drawn) [Example 32, (3-(2-(2-phenylethylsulfinyl)ethyl)-2-methylbenzofuran-7-yloxy)acetic acid], the half-inhibitory concentration (IC50) was 1.6 µM in assay [1] and 0.569 µM at TXA2 receptor [4].

In the case of `CC(C)c1oc2c(OCC(=O)O)cccc2c1CNS(=O)(=O)CCc1ccccc1` [Example 19, (3-(((2-phenylethyl)sulfonylamino)methyl)-2-isopropylbenzofuran-7-yloxy)acetic acid], the figures for the half-inhibitory concentration (IC50) (in assay [1]; at TXA2 receptor [4]) were 1.4 µM and 0.788 µM, respectively.

For the origin of these results see patent US6323235A, “Benzene-condensed heterocyclic derivatives and their uses” (priority 1995, dated 2001).
